Data as given in patent US8748430B2, “Pyrrolidin-3yl-methylamine quinoxaline derivatives” (Hoffmann-La Roche Inc, priority 2008, dated 2014).

Target: T1, human orexin-2 (hOX2) receptor (Homo sapiens, UniProt O43614)
T1 construct: expressed in transfected cells
T1 sequence (O43614 1-444): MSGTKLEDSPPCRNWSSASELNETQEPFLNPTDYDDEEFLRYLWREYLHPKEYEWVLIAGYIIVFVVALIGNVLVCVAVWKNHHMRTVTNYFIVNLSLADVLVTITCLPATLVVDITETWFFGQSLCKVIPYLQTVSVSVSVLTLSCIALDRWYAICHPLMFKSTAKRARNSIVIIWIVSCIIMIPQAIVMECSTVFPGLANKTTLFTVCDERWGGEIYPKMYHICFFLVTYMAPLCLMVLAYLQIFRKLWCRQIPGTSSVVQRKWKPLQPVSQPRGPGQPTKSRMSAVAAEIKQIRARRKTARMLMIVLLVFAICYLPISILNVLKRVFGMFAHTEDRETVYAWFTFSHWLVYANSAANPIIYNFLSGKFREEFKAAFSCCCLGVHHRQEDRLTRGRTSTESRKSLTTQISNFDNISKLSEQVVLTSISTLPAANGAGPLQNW
Experiment: Intracellular Ca2+ mobilization assay (FLIPR), antagonism of orexin-A at EC80
Assay type: cell-based
Settings: CHO(dHFr-) cells stably expressing hOX2; orexin-A at EC80 as agonist; antagonist applied 25 min before; Kb=IC50/(1+[A]/EC50); read-out: Kb (μM) OX2R (human)
Method: Intracellular Ca^2+ Mobilization Assay
The Chinese Hamster Ovary (dHFr-) mutant cell line stably expressing human orexin-1 (hOX1) or human orexin-2 (hOX2) receptors were maintained in Dulbecco's Modified Eagle Medium (1×) with GlutaMax™1, 4500 mg/L D-Glucose and Sodium Pyruvate (Catalog No. 31966-021, Invitrogen, Carlsbad, Calif.), 5% dialyzed fetal calf serum (Catalog No. 26400-044), 100 μg/ml penicillin and 100 μg/ml streptomycin. The cells were seeded at 5×10^4 cells/well in the poly-D-lysine treated, 96-well, black/clear-bottomed plates (Catalog No. BD356640, BD Biosciences, Palo Alto, Calif.). 24 h later, the cells were loaded for 1 h at 37° C. with 4 μM Flou-4 acetoxymethyl ester (Catalog No. F-14202, Molecular Probes, Eugene, Oreg.) in FLIPR buffer (1×HBSS, 20 mM HEPES, 2.5 mM Probenecid). Hanks' Balanced Salt Solution (HBSS) (10×) (catalog No. 14065-049) and HEPES (1M) (catalog No. 15630-056) were purchased from Invitrogen, Carlsbad, Calif. Probenecid (250 mM) (catalog No. P8761) was from Sigma, Buchs, Switzerland. The cells were washed five times with FLIPR buffer to remove excess dye and intracellular calcium mobilization, [Ca^2+]i were measured using a Fluorometric Imaging Plate Reader (FLIPR-96, Molecular Devices, Menlo Park, Calif.) as described previously (Malherbe et al., Mol. Pharmacol., 64, 823-832, 2003). Orexin A (catalog No. 1455, Toris Cookson Ltd, Bristol, UK) was used as agonist. Orexin A ([…] stock solution in DMSO) was diluted in FLIPR buffer+0.1% BSA. The EC50 and EC80 values of orexin-A were measured daily from standard agonist concentration-response curves in CHO(dHFr-)-OX1R and -OX2R cell lines. All compounds were dissolved in 100% DMSO. Inhibition curves were determined by addition of 11 concentrations (0.0001-10 μM) of inhibitory compounds and using EC80 value of orexin-A as agonist (a concentration which gave 80% of max agonist response, determined daily). The antagonists were applied 25 min (incubation at 37° C.) before the application of the agonist. Responses were measured as peak increase in fluorescence minus basal, normalized to the maximal stimulatory effect induced by EC80 value of orexin-A or orexin-B. Inhibition curves were fitted according to the Hill equation: y=100/(1+(x/IC50)^nH), where nH=slope factor using Excel-fit 4 software (Microsoft). Kb values were calculated according to the following equation Kb=IC50/(1+[A]/EC50) where A is the concentration of agonist added which is very close to agonist EC80 value, and IC50 and EC50 values were derived from the antagonist inhibition and orexin-A or B agonist curves, respectively.

Row | Kb [µM] | Structure (SMILES)
1 | 0.214 | O=C(c1ccccc1OC(F)(F)F)N1CC[C@@H](CNc2nc3ccc(Cl)cc3o2)C1 [Example 12, {(S)-3-[(6-Chloro-benzooxazol-2-ylamino)-methyl]-pyrrolidin-1-yl}-(2-trifluoromethoxy-phenyl)-methanone]
2 | 0.355 | COc1ccc(C)cc1C(=O)N1CC[C@@H](CNc2nc3ccc(Cl)cc3o2)C1 [Example 18, {(S)-3-[(6-Chloro-benzooxazol-2-ylamino)-methyl]-pyrrolidin-1-yl}-(2-methoxy-5-methyl-phenyl)-methanone]
3 | 0.726 | O=C(c1ccccc1C(F)(F)F)N1CC[C@@H](CNc2nc3ccc(Cl)cc3o2)C1 [Example 11, {(S)-3-[(6-Chloro-benzooxazol-2-ylamino)-methyl]-pyrrolidin-1-yl}-(2-trifluoromethyl-phenyl)-methanone]
4 | 0.0292 | COc1cccc(OC)c1C(=O)N1CCC(CNc2nc3ccc(Cl)cc3o2)C1 (stereo not shown) [Example 1, {3-[(6-Chloro-benzooxazol-2-ylamino)-methyl]-pyrrolidin-1-yl}-(2,6-dimethoxy-phenyl)-methanone]
5 | 0.129 | O=C(c1ccccc1OC(F)(F)F)N1CC[C@@H](CNc2nc3ccc(F)cc3s2)C1 [Example 4, {(S)-3-[(6-Fluoro-benzothiazol-2-ylamino)-methyl]-pyrrolidin-1-yl}-(2-trifluoromethoxy-phenyl)-methanone]
6 | 0.565 | Cc1ccc(Cl)c(C(=O)N2CC[C@@H](CNc3nc4ccc(Cl)cc4o3)C2)c1 [Example 17, {(S)-3-[(6-Chloro-benzooxazol-2-ylamino)-methyl]-pyrrolidin-1-yl}-(2-chloro-5-methyl-phenyl)-methanone]
7 | 0.207 | O=C(c1ccccc1C(F)(F)F)N1CC[C@@H](CNc2nc3ccc(F)cc3s2)C1 [Example 3, {(S)-3-[(6-Fluoro-benzothiazol-2-ylamino)-methyl]-pyrrolidin-1-yl}-(2-trifluoromethyl-phenyl)-methanone]
